Source: US12172995B2, “Substituted indole and indazole compounds” (BRISTOL-MYERS SQUIBB COMPANY, priority 2018, dated 2024)

What was measured:
Type in all cases: cell-based
human TLR8 = target: T1, human TLR8 (Homo sapiens, UniProt Q9NR97); assay: TLR8 inhibition reporter assay (HEK-Blue SEAP); conditions: HEK-Blue cells overexpressing human TLR8, stimulated with R848 15.9 μM, 22 hour incubation
T1 construct: host or cells: HEK-Blue cells
T1 sequence (Q9NR97 27-1041): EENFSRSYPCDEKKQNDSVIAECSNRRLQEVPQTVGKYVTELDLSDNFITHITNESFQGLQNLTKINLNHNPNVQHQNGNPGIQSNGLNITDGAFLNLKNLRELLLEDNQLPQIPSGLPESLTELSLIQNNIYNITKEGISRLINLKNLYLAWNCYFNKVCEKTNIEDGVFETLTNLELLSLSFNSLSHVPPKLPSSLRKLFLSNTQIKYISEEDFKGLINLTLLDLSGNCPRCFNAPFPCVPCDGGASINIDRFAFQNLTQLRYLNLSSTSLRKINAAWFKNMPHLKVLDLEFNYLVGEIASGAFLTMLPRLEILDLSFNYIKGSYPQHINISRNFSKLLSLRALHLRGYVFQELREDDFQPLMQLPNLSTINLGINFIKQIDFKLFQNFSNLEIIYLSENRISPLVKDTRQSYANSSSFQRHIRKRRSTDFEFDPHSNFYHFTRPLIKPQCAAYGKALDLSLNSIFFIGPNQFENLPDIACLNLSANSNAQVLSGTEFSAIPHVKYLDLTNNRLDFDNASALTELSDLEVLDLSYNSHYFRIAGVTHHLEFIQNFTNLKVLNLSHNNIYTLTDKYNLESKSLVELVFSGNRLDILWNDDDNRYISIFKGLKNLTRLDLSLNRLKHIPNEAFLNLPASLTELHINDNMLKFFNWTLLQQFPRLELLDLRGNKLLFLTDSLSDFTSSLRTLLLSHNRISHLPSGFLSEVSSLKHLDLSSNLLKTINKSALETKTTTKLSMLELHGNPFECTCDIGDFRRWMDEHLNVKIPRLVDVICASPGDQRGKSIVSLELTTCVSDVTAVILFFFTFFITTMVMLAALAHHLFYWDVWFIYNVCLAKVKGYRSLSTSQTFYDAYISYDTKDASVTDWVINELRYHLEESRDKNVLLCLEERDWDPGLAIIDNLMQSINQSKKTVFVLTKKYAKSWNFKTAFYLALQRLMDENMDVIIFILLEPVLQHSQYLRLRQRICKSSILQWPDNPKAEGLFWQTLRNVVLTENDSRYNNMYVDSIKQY
Outline: (§1)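 Percent inhibition reflects SEAP reduction after 22 h at 37° C, relative to agonist-plus-DMSO and known-inhibitor controls. Compounds (0.05 nM to 50 μM) were added 30 min before agonist: TLR9 cells received ODN2006 5 nM, TLR8 cells R848 15.9 μM, TLR7 cells gardiquimod 7.5 μM; human receptor-expressing HEK-Blue reporter lines.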

human TLR7 = target: T2, human TLR7 (Homo sapiens, UniProt Q9NYK1); assay: TLR7 inhibition reporter assay (HEK-Blue SEAP); conditions: HEK-Blue cells overexpressing human TLR7, stimulated with gardiquimod 7.5 μM, 22 hour incubation
T2 construct: host or cells: HEK-Blue cells
T2 sequence (Q9NYK1 27-1049): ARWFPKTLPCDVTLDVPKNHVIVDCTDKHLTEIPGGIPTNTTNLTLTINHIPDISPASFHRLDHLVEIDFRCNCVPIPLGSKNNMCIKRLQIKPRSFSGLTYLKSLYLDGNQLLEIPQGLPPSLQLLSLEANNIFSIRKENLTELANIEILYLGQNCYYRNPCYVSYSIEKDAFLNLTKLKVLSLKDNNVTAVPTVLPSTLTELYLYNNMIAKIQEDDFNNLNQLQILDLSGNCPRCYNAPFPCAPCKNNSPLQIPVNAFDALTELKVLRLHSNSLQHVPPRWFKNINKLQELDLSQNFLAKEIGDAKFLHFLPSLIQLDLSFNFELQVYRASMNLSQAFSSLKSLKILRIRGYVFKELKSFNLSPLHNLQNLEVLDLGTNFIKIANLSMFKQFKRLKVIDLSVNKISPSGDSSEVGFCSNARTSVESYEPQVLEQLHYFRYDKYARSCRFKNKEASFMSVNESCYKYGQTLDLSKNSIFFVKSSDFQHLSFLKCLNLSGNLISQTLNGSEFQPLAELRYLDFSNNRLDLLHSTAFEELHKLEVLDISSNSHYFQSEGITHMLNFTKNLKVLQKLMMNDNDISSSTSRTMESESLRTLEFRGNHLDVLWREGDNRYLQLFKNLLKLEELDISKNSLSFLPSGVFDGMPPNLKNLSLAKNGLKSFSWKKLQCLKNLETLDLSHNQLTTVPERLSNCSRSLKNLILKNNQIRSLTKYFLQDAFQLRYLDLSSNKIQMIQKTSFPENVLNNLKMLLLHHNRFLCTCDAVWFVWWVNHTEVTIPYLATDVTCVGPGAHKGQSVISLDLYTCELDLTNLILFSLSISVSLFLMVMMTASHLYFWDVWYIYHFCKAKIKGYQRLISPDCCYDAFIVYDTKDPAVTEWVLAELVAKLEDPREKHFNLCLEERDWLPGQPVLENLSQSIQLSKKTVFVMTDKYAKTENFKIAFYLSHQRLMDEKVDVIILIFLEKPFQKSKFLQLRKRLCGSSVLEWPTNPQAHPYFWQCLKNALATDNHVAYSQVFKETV
Outline: as §1

human TLR9 = target: T3, human TLR9 (Homo sapiens, UniProt Q9NR96); assay: TLR9 inhibition reporter assay (HEK-Blue SEAP); conditions: HEK-Blue cells overexpressing human TLR9, stimulated with ODN2006 5 nM, 22 hour incubation
T3 construct: host or cells: HEK-Blue cells
T3 sequence (Q9NR96 26-1032): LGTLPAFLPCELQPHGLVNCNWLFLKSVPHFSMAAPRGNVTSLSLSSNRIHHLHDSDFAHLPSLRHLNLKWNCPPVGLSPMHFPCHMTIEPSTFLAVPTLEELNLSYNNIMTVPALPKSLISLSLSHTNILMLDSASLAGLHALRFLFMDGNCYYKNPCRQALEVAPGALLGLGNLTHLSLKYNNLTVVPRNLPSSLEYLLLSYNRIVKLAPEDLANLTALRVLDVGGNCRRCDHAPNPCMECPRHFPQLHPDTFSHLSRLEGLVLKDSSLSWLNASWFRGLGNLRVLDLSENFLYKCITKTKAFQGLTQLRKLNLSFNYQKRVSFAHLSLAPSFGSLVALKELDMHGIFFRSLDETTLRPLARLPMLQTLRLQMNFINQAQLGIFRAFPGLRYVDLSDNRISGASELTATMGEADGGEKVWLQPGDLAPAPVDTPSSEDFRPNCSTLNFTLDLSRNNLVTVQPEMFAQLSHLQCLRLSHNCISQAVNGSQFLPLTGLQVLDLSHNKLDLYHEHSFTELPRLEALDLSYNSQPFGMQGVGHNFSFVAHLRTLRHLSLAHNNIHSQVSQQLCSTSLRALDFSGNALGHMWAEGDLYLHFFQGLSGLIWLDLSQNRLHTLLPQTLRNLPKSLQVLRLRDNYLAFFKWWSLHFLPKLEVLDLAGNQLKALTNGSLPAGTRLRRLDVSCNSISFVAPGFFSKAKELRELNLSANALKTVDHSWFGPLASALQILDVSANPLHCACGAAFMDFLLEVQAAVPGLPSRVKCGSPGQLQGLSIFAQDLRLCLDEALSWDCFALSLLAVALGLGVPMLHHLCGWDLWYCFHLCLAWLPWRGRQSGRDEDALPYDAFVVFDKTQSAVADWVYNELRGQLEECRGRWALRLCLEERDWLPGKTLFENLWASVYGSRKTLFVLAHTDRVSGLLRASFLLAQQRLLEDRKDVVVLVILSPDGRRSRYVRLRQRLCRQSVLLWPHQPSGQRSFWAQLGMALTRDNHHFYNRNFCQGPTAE
Outline: as §1

COc1cc2c(C3CCNCC3)n[nH]c2cc1-c1cc(C)c2ncnn2c1 [Example 19, 6-(5-methoxy-3-(piperidin-4-yl)-1H-indazol-6-yl)-8-methyl-[1,2,4]triazolo[1,5-a]pyridine]
IC50 (human TLR8): 11.2 nM
IC50 (human TLR7): 31.8 nM
IC50 (human TLR9): 1780 nM

Cc1cc2c(C3CCN(C(=O)CN(C)C)CC3)n[nH]c2cc1-c1cc(C)c2ncnn2c1 [Example 20, 2-(dimethylamino)-1-(4-(5-methyl-6-(8-methyl-[1,2,4]triazolo[1,5-a]pyridin-6-yl)-1H-indazol-3-yl)piperidin-1-yl)ethan-1-one]
IC50 (human TLR8): 3.8 nM
IC50 (human TLR7): 24.6 nM
IC50 (human TLR9): 4420 nM

Cc1cc2c(C3CCN(C4CCOCC4)CC3)n[nH]c2cc1-c1cc(C)c2ncnn2c1 [Example 21, 8-methyl-6-(5-methyl-3-(1-(tetrahydro-2H-pyran-4-yl)piperidin-4-yl)-1H-indazol-6-yl)-[1,2,4]triazolo[1,5-a]pyridine]
IC50 (human TLR8): 0.7 nM
IC50 (human TLR7): 26.2 nM
IC50 (human TLR9): 4540 nM

CCCN1CCC(c2n[nH]c3cc(-c4cc(C)c5ncnn5c4)c(C)cc23)CC1 [Example 22, 8-methyl-6-(5-methyl-3-(1-propylpiperidin-4-yl)-1H-indazol-6-yl)-[1,2,4]triazolo[1,5-a]pyridine]
IC50 (human TLR8): 0.8 nM
IC50 (human TLR7): 17.7 nM
IC50 (human TLR9): 3130 nM

Cc1cc2c(C3CCN(CC(=O)N(C)C)CC3)n[nH]c2cc1-c1cc(C)c2ncnn2c1 [Example 23, N,N-dimethyl-2-(4-(5-methyl-6-(8-methyl-[1,2,4]triazolo[1,5-a]pyridin-6-yl)-1H-indazol-3-yl)piperidin-1-yl)acetamide]
IC50 (human TLR8): 2.9 nM
IC50 (human TLR7): 43.4 nM
IC50 (human TLR9): 6630 nM

Cc1cc2c(C3CCCNC3)n[nH]c2cc1-c1cc(C)c2ncnn2c1 (stereo not drawn) [Example 24, 8-methyl-6-(5-methyl-3-(piperidin-3-yl)-1H-indazol-6-yl)-[1,2,4]triazolo[1,5-a]pyridine]
IC50 (human TLR8): 1.1 nM
IC50 (human TLR7): 15.8 nM
IC50 (human TLR9): 862 nM

Cc1cc2c(C3CCNCC3)n[nH]c2cc1-c1cc(C)c(=O)n(C)c1 [Example 25, 1,3-dimethyl-5-(5-methyl-3-(piperidin-4-yl)-1H-indazol-6-yl)pyridin-2(1H)-one]
IC50 (human TLR8): 10.4 nM
IC50 (human TLR7): 263 nM
IC50 (human TLR9): 2240 nM

Cc1cc2c(C3CCNC3)n[nH]c2cc1-c1cc(C)c2ncnn2c1 (stereo not drawn) [Example 26, 8-methyl-6-(5-methyl-3-(pyrrolidin-3-yl)-1H-indazol-6-yl)-[1,2,4]triazolo[1,5-a]pyridine]
IC50 (human TLR8): 1.5 nM
IC50 (human TLR7): 18.8 nM
IC50 (human TLR9): 1320 nM

Cc1cc(-c2cc(C)c3ncnn3c2)cc2[nH]nc(C3CCNCC3)c12 [Example 27, 8-methyl-6-(4-methyl-3-(piperidin-4-yl)-1H-indazol-6-yl)-[1,2,4]triazolo[1,5-a]pyridine]
IC50 (human TLR8): 25.9 nM
IC50 (human TLR7): 6.6 nM
IC50 (human TLR9): 650 nM

Cc1cc2c(C3CCC(NCCS(C)(=O)=O)CC3)n[nH]c2cc1-c1cc(C)c2ncnn2c1 (stereo not drawn) [Example 30, 4-(5-methyl-6-(8-methyl-[1,2,4]triazolo[1,5-a]pyridin-6-yl)-1H-indazol-3-yl)-N-(2-(methylsulfonyl)ethyl) cyclohexan-1-amine]
IC50 (human TLR8): 0.4 nM
IC50 (human TLR7): 15.3 nM
IC50 (human TLR9): 6740 nM

Cc1cc2c(C3CCC(NCCS(C)(=O)=O)CC3)n[nH]c2cc1-c1cc(C)c2ncnn2c1 (stereo not drawn) [Example 31, 4-(5-methyl-6-(8-methyl-[1,2,4]triazolo[1,5-a]pyridin-6-yl)-1H-indazol-3-yl)-N-(2-(methylsulfonyl)ethyl)cyclohexan-1-amine]
IC50 (human TLR8): 0.6 nM
IC50 (human TLR7): 39.8 nM
IC50 (human TLR9): 6120 nM

Cc1cc2c(C3CCC(NC4CC4)CC3)n[nH]c2cc1-c1cc(C)c2ncnn2c1 (stereo not drawn) [Example 36, N-cyclopropyl-4-(5-methyl-6-(8-methyl-[1,2,4]triazolo[1,5-a]pyridin-6-yl)-1H-indazol-3-yl) cyclohexan-1-amine]
IC50 (human TLR8): 0.2 nM
IC50 (human TLR7): 7 nM
IC50 (human TLR9): 3340 nM

Cc1cc2c(C3CCC(NC4CC4)CC3)n[nH]c2cc1-c1cc(C)c2ncnn2c1 (stereo not drawn) [Example 37, N-cyclopropyl-4-(5-methyl-6-(8-methyl-[1,2,4]triazolo[1,5-a]pyridin-6-yl)-1H-indazol-3-yl)cyclohexan-1-amine]
IC50 (human TLR8): 0.4 nM
IC50 (human TLR7): 12.4 nM
IC50 (human TLR9): 5140 nM

Cc1cc2c(C3CCCN(C(=O)CN(C)C)C3)n[nH]c2cc1-c1cc(C)c2ncnn2c1 (stereo not drawn) [Example 40, 2-(dimethylamino)-1-(3-(5-methyl-6-(8-methyl-[1,2,4]triazolo[1,5-a]pyridin-6-yl)-1H-indazol-3-yl)piperidin-1-yl)ethan-1-one]
IC50 (human TLR8): 4.6 nM
IC50 (human TLR7): 23.4 nM
IC50 (human TLR9): 13000 nM

Cc1cc2c(C3CCCN(CC(=O)N(C)C)C3)n[nH]c2cc1-c1cc(C)c2ncnn2c1 (stereo not drawn) [Example 41, N,N-dimethyl-2-(3-(5-methyl-6-(8-methyl-[1,2,4]triazolo[1,5-a]pyridin-6-yl)-1H-indazol-3-yl)piperidin-1-yl) acetamide]
IC50 (human TLR8): 1.9 nM
IC50 (human TLR7): 20 nM
IC50 (human TLR9): 7300 nM
